Drawing on the Kinase Knowledgebase extract (Sharma et al. 2016), this text covers IC50 and inhibition for 81 compounds.

Where only a bound is given, the exact number is not on record here.

The target in one experiment is MAPK14 (human) (UniProt Q16539). Kind of experiment: Inhibition of LPS Stimulated TNF Production by U937 Cells.
Sequence of MAPK14 (human) (Q16539 whole entry, looked up): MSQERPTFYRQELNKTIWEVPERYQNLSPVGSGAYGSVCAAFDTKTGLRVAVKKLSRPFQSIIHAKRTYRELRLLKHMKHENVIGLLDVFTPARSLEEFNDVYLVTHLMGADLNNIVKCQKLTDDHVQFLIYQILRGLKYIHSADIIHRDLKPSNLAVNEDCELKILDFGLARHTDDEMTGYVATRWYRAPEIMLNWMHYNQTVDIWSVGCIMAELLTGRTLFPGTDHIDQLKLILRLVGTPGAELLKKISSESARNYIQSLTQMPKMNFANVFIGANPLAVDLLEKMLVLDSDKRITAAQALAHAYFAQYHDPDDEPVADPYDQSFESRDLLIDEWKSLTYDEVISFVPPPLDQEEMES
Conditions: not given
In general, IC50 refers to the concentration needed to halve the response being measured. On to `Cc1ccc(C(=O)N[C@H](Cc2ccccc2)c2[nH]nc(-c3ccc(F)cc3)c2-c2ccncc2)cc1`, for which the IC50 is greater than 1000 nM.

In turn, `CNC(=O)CC[C@H](NC(=O)c1ccc(C)cc1)c1[nH]nc(-c2ccc(F)cc2)c1-c1ccncc1` returned an IC50 greater than 1000 nM. In the case of `CC(=O)OC(C)(C)C(=O)N[C@@H](C)c1[nH]nc(-c2ccc(F)cc2)c1-c1ccncc1`, the IC50 is 870 nM. As to `O=C(N[C@H](Cc1ccccc1)c1[nH]nc(-c2ccc(F)cc2)c1-c1ccncc1)C1CC1`, the IC50 is greater than 1000 nM. Turning to `Cc1n[nH]c(-c2ccc(F)c(F)c2)c1-c1ccncc1`, the IC50 amounted to 329 nM. Turning to `Fc1ccc(-c2nn(CCN3CCOCC3)cc2-c2ccnc(F)c2)cc1`, the IC50 was greater than 10000 nM. In turn, `Fc1ccc(-c2nn(CCN3CCOCC3)cc2-c2ccncc2)cc1` displayed a concentration for half-maximal inhibition (IC50) of 1830 nM. Regarding `Fc1ccc(CNc2cc(-c3cnn(CCN4CCOCC4)c3-c3ccc(F)cc3)ccn2)cc1`, the IC50 came out at 450 nM. On to `O=C(NCCc1[nH]nc(-c2ccc(F)cc2)c1-c1ccncc1)c1cc(Cl)cc(Cl)c1`, for which the half-maximal inhibitory concentration (IC50) is greater than 1000 nM.

Regarding `OCCn1cc(-c2ccnc(/C=C/c3ccc(F)cc3)c2)c(-c2ccc(F)cc2)n1`, the half-maximal inhibitory concentration (IC50) came out at 347 nM.

Take `O=C(N[C@H](Cc1ccccc1)c1[nH]nc(-c2ccc(F)cc2)c1-c1ccncc1)c1cccc(Br)c1`: the 50% inhibitory concentration (IC50) was greater than 1000 nM. The compound `O=C(c1ccc(I)cc1)N1CCC(c2[nH]nc(-c3ccc(F)cc3)c2-c2ccncc2)CC1` returned an IC50 of 270 nM. `CN(C)CCn1cc(-c2ccncc2)c(-c2ccc(F)cc2)n1` displayed an IC50 of 254 nM. Compound `CC(=O)OC(C)(C)C(=O)N[C@H](Cc1ccccc1)c1[nH]nc(-c2ccc(F)cc2)c1-c1ccncc1` came in with a 50% inhibitory concentration (IC50) greater than 1000 nM. The same measure, in the same setting: the figure for `O=C(COc1ccc(Cl)cc1)NCc1[nH]nc(-c2ccc(F)cc2)c1-c1ccncc1` is 1250 nM; for `OCCCNc1cc(-c2c[nH]nc2-c2ccc(F)cc2)ccn1` it is 97.3 nM.

`CC(C)C(=O)NCc1[nH]nc(-c2ccc(F)cc2)c1-c1ccncc1` came in with an IC50 of 650 nM.

The compound `COc1ccc(CNc2cc(-c3c[nH]nc3-c3ccc(Cl)cc3)ccn2)cc1` yielded an IC50 of 495 nM. `Cc1cccc(-c2n[nH]cc2-c2ccnc(C)c2)c1` came in with an IC50 of 301 nM. The same measure, in the same setting: the figure for `O=C(NCCc1[nH]nc(-c2ccc(F)cc2)c1-c1ccncc1)Nc1ccc(F)cc1` is 2710 nM; for `CCN(CC)CCn1cc(-c2ccncc2)c(-c2ccc(F)cc2)n1` it is 509 nM. In the case of `Fc1ccc(-c2n[nH]cc2-c2ccnc(-c3c[nH]nc3-c3ccc(F)cc3)c2)cc1`, the half-maximal inhibitory concentration (IC50) is 602 nM. On the same count and under the same terms, the figure for `O=C(c1ccc(Br)cc1)N1CCC(c2[nH]nc(-c3ccc(F)cc3)c2-c2ccncc2)CC1` is 1380 nM; for `CNC(=O)CC[C@H](NC(=O)c1ccno1)c1[nH]nc(-c2ccc(F)cc2)c1-c1ccncc1` it is greater than 1000 nM. Compound `O=C(NCCc1[nH]nc(-c2ccc(F)cc2)c1-c1ccncc1)c1cccc(C(F)(F)F)c1F` gave an IC50 greater than 1000 nM.

Still in this experiment, the particulars now being: concentration not given here.
The term inhibition denotes the relative decrease from the control value, in per cent. A higher inhibition goes with a strong effect. `C[C@@H](NC(=O)c1cccnc1)c1[nH]nc(-c2ccc(F)cc2)c1-c1ccncc1` returned an inhibition of 36%.

Take `O=S(=O)(NCc1[nH]nc(-c2ccc(F)cc2)c1-c1ccncc1)c1ccc(-c2ccon2)s1`: the inhibition was 89%. Compound `CCNC(=O)N[C@@H](C)c1[nH]nc(-c2ccc(F)cc2)c1-c1ccncc1` gave an inhibition of 50%. `C[C@@H](NC(=O)Nc1ccc(F)cc1)c1[nH]nc(-c2ccc(F)cc2)c1-c1ccncc1` came in with an inhibition of 35%. The compound `O=C(NCCc1[nH]nc(-c2ccc(F)cc2)c1-c1ccncc1)c1ccc(C(F)(F)F)cc1` came in with an inhibition of 30%.

In turn, `CC(C)(C)C(=O)N[C@@H](Cc1ccccc1)c1[nH]nc(-c2ccc(F)cc2)c1-c1ccncc1` gave an inhibition of 22%. In the case of `C[C@@H](NC(=O)Nc1cccc(F)c1)c1[nH]nc(-c2ccc(F)cc2)c1-c1ccncc1`, the inhibition turned out to be 27%.

`CCCCCCCC(=O)NCc1[nH]nc(-c2ccc(F)cc2)c1-c1ccncc1` registered an inhibition of 4%. The compound `C[C@H](NC(=O)c1ccno1)c1[nH]nc(-c2ccc(F)cc2)c1-c1ccncc1` gave an inhibition of 28%. `COc1ccc(NC(=O)N[C@H](C)c2[nH]nc(-c3ccc(F)cc3)c2-c2ccncc2)c(OC)c1` returned an inhibition of 40%. For the compound `CCNC(=O)NCc1[nH]nc(-c2ccc(F)cc2)c1-c1ccncc1`, the inhibition is 28%. In the case of `CN(C)c1cccc2c(S(=O)(=O)NCCc3[nH]nc(-c4ccc(F)cc4)c3-c3ccncc3)cccc12`, the inhibition was determined as 28%. For `C[C@H](NS(=O)(=O)c1ccccc1S(C)(=O)=O)c1[nH]nc(-c2ccc(F)cc2)c1-c1ccncc1`, the inhibition came to 73%.

Compound `CN(C)c1cccc2c(S(=O)(=O)N3CCC(c4[nH]nc(-c5ccc(F)cc5)c4-c4ccncc4)CC3)cccc12` displayed an inhibition of 18%. `CCOC(=O)CCCC(=O)NCc1[nH]nc(-c2ccc(F)cc2)c1-c1ccncc1` had an inhibition of 22%.

Compound `C[C@@H](NS(=O)(=O)c1ccc(Cl)s1)c1[nH]nc(-c2ccc(F)cc2)c1-c1ccncc1` gave an inhibition of 95%. Consider `C[C@@H](NC(=O)c1cccc(Cl)c1Cl)c1[nH]nc(-c2ccc(F)cc2)c1-c1ccncc1`, for which the inhibition was determined as 43%. `COc1ccc(NC(=O)N[C@@H](C)c2[nH]nc(-c3ccc(F)cc3)c2-c2ccncc2)c(OC)c1` yielded an inhibition of 21%. The compound `C[C@@H](NC(=O)N1CCCC1)c1[nH]nc(-c2ccc(F)cc2)c1-c1ccncc1` returned an inhibition of 48%. Consider `CCCCOc1ccc(C(=O)NCc2[nH]nc(-c3ccc(F)cc3)c2-c2ccncc2)cc1`, for which the inhibition was 66%. The same measure, in the same setting: the figure for `O=[N+]([O-])c1cc(S(=O)(=O)NCc2[nH]nc(-c3ccc(F)cc3)c2-c2ccncc2)ccc1Cl` is 15%; for `CCCS(=O)(=O)N[C@H](Cc1ccccc1)c1[nH]nc(-c2ccc(F)cc2)c1-c1ccncc1` it is 13%. Turning to `Cc1onc(-c2ccccc2Cl)c1C(=O)NCc1[nH]nc(-c2ccc(F)cc2)c1-c1ccncc1`, the inhibition was 21%. On the same count and under the same terms, with `O=C(NCc1[nH]nc(-c2ccc(F)cc2)c1-c1ccncc1)c1ccc(Cl)nc1` the figure was 15%; with `Cc1c(-c2ccncc2)c(-c2ccc(F)cc2)nn1CC(=O)NCCCN1CCN(C)CC1`, 30%; with `O=S(=O)(NCCc1[nH]nc(-c2ccc(F)cc2)c1-c1ccncc1)c1cc(Cl)c(Cl)s1`, 28%.

`C[C@@H](NC(=O)c1ccccn1)c1[nH]nc(-c2ccc(F)cc2)c1-c1ccncc1`: the inhibition amounted to 24%. In turn, `COc1ccc(CC(=O)N[C@@H](C)c2[nH]nc(-c3ccc(F)cc3)c2-c2ccncc2)cc1OC` came in with an inhibition of 28%.

`C[C@H](NC(=O)c1ccc(F)cc1C(F)(F)F)c1[nH]nc(-c2ccc(F)cc2)c1-c1ccncc1`: the inhibition came out at 58%. In the case of `C[C@H](NS(=O)(=O)c1ccc(-c2ccon2)s1)c1[nH]nc(-c2ccc(F)cc2)c1-c1ccncc1`, the inhibition was 95%. In the case of `O=C(NCc1[nH]nc(-c2ccc(F)cc2)c1-c1ccncc1)c1cc(F)c(F)cc1F`, the inhibition was 36%. `C[C@H](NS(=O)(=O)c1ccccc1Br)c1[nH]nc(-c2ccc(F)cc2)c1-c1ccncc1` gave an inhibition of 81%. Turning to `Cc1cccc(C(=O)N[C@@H](C)c2[nH]nc(-c3ccc(F)cc3)c2-c2ccncc2)c1`, the inhibition was found to be 29%.

Compound `O=C(NCc1[nH]nc(-c2ccc(F)cc2)c1-c1ccncc1)C(F)(F)F` displayed an inhibition of 67%.

Compound `O=S(=O)(NCc1[nH]nc(-c2ccc(F)cc2)c1-c1ccncc1)c1ccccc1Br` had an inhibition of 68%. In turn, `C[C@@H](NS(=O)(=O)c1cccc2cccnc12)c1[nH]nc(-c2ccc(F)cc2)c1-c1ccncc1` gave an inhibition of 71%. `CC1(C)[C@H]2CC[C@@]1(CS(=O)(=O)NCc1[nH]nc(-c3ccc(F)cc3)c1-c1ccncc1)C(=O)C2`: the inhibition worked out at 20%. Compound `CN(C)c1cccc2c(S(=O)(=O)NCc3[nH]nc(-c4ccc(F)cc4)c3-c3ccncc3)cccc12` registered an inhibition of 2%.

With `C[C@@H](NC(=O)C1CCC1)c1[nH]nc(-c2ccc(F)cc2)c1-c1ccncc1`, the inhibition is 19%. `C[C@@H](NS(=O)(=O)c1ccccc1S(C)(=O)=O)c1[nH]nc(-c2ccc(F)cc2)c1-c1ccncc1` displayed an inhibition of 80%. The compound `Cc1cc(C)c(S(=O)(=O)N[C@H](C)c2[nH]nc(-c3ccc(F)cc3)c2-c2ccncc2)c(C)c1` returned an inhibition of 65%. Still for that read-out and setting: with `CNC(=O)CC[C@H](NS(=O)(=O)c1ccccc1F)c1[nH]nc(-c2ccc(F)cc2)c1-c1ccncc1` the figure was 1%; with `C[C@H](NS(=O)(=O)c1c(Cl)cccc1Cl)c1[nH]nc(-c2ccc(F)cc2)c1-c1ccncc1`, 77%; with `C[C@@H](NS(=O)(=O)C[C@]12CC[C@@H](CC1=O)C2(C)C)c1[nH]nc(-c2ccc(F)cc2)c1-c1ccncc1`, 65%. Turning to `C=CCNC(=O)N[C@@H](C)c1[nH]nc(-c2ccc(F)cc2)c1-c1ccncc1`, the inhibition turned out to be 42%.

`CCOC(=O)NCc1[nH]nc(-c2ccc(F)cc2)c1-c1ccncc1`: the inhibition was 48%. Take `CNC(=O)N[C@H](C)c1[nH]nc(-c2ccc(F)cc2)c1-c1ccncc1`: the inhibition is 50%. `COc1ccc(C)cc1S(=O)(=O)N[C@@H](C)c1[nH]nc(-c2ccc(F)cc2)c1-c1ccncc1` had an inhibition of 76%. On to `O=C(NCCc1[nH]nc(-c2ccc(F)cc2)c1-c1ccncc1)Nc1ccc(F)cc1`, for which the inhibition came to 39%.

`C[C@H](NC(=O)c1cc(Cl)cc(Cl)c1)c1[nH]nc(-c2ccc(F)cc2)c1-c1ccncc1` displayed an inhibition of 3%.

The compound `O=S(=O)(NCCc1[nH]nc(-c2ccc(F)cc2)c1-c1ccncc1)c1cc(Cl)cc(Cl)c1O` registered an inhibition of 50%. With `C[C@H](NC(=O)Nc1cccc(F)c1)c1[nH]nc(-c2ccc(F)cc2)c1-c1ccncc1`, the inhibition worked out at 22%. In turn, `CCc1ccccc1NC(=O)NCc1[nH]nc(-c2ccc(F)cc2)c1-c1ccncc1` came in with an inhibition of 21%. The same measure, in the same setting: with `CC(C)OC(=O)N[C@@H](C)c1[nH]nc(-c2ccc(F)cc2)c1-c1ccncc1` the figure was 53%. As for `O=S(=O)(NCc1[nH]nc(-c2ccc(F)cc2)c1-c1ccncc1)c1ccccc1Cl`, the inhibition was found to be 70%. For the compound `Cc1ccccc1S(=O)(=O)N[C@@H](C)c1[nH]nc(-c2ccc(F)cc2)c1-c1ccncc1`, the inhibition amounted to 94%. Consider `COc1ccc(CC(=O)N[C@@H](C)c2[nH]nc(-c3ccc(F)cc3)c2-c2ccncc2)cc1`, for which the inhibition worked out at 22%.
